Activity calls are given as the source filed them. The rule behind the calls is not given here.

Assay [1] relates to Saccharomyces cerevisiae. Put plainly: Antifungal activity against yeast AD1-8u expressing Candida albicans CaCdr1p by agar disk diffusion assay. The format is functional. For orientation: Agar diffusion results depend on both activity and mobility in agar.
For assay [2], the system named is Saccharomyces cerevisiae. Put plainly: Antifungal activity against yeast AD1-8u expressing Candida albicans CaMdr1p by agar disk diffusion assay. Note: test concentration or dose not given here. The format is functional.
The subject of assay [3] is Candida albicans. Put plainly: Binding affinity to Candida albicans CaMdr1p expressed in yeast AD1-8u.
For assay [4], the system named is Candida albicans. Put plainly: Binding affinity to Candida albicans CaCdr1p expressed in yeast AD1-8u.
Throughout, for IZ: test concentration or dose not given here.

Regarding `Clc1ccccc1C(c1ccccc1)(c1ccccc1)n1ccnc1` [CLOTRIMAZOLE], the “inhibition zone (IZ)” value in assay [1] worked out at 0.7 cm; in assay [2], 0 cm. The outcome in assay [3] was inactive. The outcome in assay [4] was Active.

In the case of `NC[C@H]1O[C@H](O[C@H]2[C@H](O)[C@@H](O[C@H]3O[C@H](CO)[C@@H](O)[C@H](N)[C@H]3O)[C@H](N)C[C@@H]2N)[C@H](O)[C@@H](O)[C@@H]1O` [KANAMYCIN], the “inhibition zone (IZ)” value in assay [1] came to 0.1 cm; in assay [2], 0.3 cm. Moreover, in assay [3], the result was Active. For the same compound, the result in assay [4] was inactive.

Take `OC(Cn1cncn1)(Cn1cncn1)c1ccc(F)cc1F` [FLUCONAZOLE]: the figures for the “inhibition zone (IZ)” value in assay [1] and in assay [2] were 2.3 cm and 1.6 cm, respectively. The result in assay [3] and in assay [4] was Active.

`COC(=O)[C@@H]1[C@H]2C[C@H]3c4[nH]c5ccccc5c4CCN3C[C@@H]2CC[C@@H]1O.Cl` [YOHIMBINE HYDROCHLORIDE]: the “inhibition zone (IZ)” value in assay [1] and in assay [2] was 1.3 cm in each case. The outcome in assay [3] and in assay [4] was Active.

For `CCCCNC(=O)n1c(NC(=O)OC)nc2ccccc21` [BENOMYL], the “inhibition zone (IZ)” value in assay [1] stood at 0.9 cm; in assay [2], 0.4 cm. Moreover, the outcome in assay [3] and in assay [4] was Active.

For the compound `C[C@]12CC[C@@H]3c4ccc(OS(=O)(=O)O)cc4CC[C@H]3[C@@H]1CCC2=O` [ESTRONE SULFURIC ACID], the “inhibition zone (IZ)” value in assay [1] and in assay [2] was 0 cm each time. Moreover, the outcome in assay [3] and in assay [4] was inactive.

On to `CC/C(=C(\c1ccccc1)c1ccc(OCCN(C)C)cc1)c1ccccc1` [TAMOXIFEN], for which the figures for the “inhibition zone (IZ)” value in assay [1] and in assay [2] were 0.7 cm and 0.2 cm, respectively. The outcome in assay [3] was inactive. Also, the result in assay [4] was Active.

As for `CC[C@]1(O)C[C@@H]2CN(CCc3c([nH]c4ccccc34)[C@@](C(=O)OC)(c3cc4c(cc3OC)N(C)[C@H]3[C@@](O)(C(=O)OC)[C@H](OC(C)=O)[C@]5(CC)C=CCN6CC[C@]43[C@@H]65)C2)C1` [VINBLASTINE], the “inhibition zone (IZ)” value in assay [1] worked out at 0.6 cm; in assay [2] it was 0 cm. The result in assay [3] was inactive. Also, the result in assay [4] was Active.

Take `CCCCCCCCCCCC(=O)OCCN(C)C`: the results for the “inhibition zone (IZ)” value in assay [1] and in assay [2] were 0.4 cm and 0.2 cm, respectively. Further, in assay [3], the outcome was inactive. The result in assay [4] was Active.

For `COC(=O)C1=C(C)NC(C)=C(C(=O)OCCCN2CCC(c3ccccc3)(c3ccccc3)CC2)[C@H]1c1cccc([N+](=O)[O-])c1` [NIGULDIPINE], the “inhibition zone (IZ)” value in assay [1] was determined as 0.5 cm; in assay [2], 0.2 cm. The outcome in assay [3] was inactive. Further, the outcome in assay [4] was Active.

With `C[C@@H]1C[C@@H]([C@H](O)CC2CC(=O)NC(=O)C2)C(=O)[C@@H](C)C1` [CYCLOHEXIMIDE], the “inhibition zone (IZ)” value was determined as 1.2 cm in assay [1] and 0.8 cm in assay [2]. Further, the outcome in assay [3] and in assay [4] was Active.

Regarding `C[C@@H]1O[C@@H](O[C@H]2C[C@@H](O)[C@]3(CO)[C@H]4[C@H](O)C[C@]5(C)[C@@H](C6=CC(=O)OC6)CC[C@]5(O)[C@@H]4CC[C@]3(O)C2)[C@H](O)[C@H](O)[C@H]1O` [OUABAIN], the “inhibition zone (IZ)” value in assay [1] and in assay [2] was 0 cm each time. In addition, the result in assay [3] and in assay [4] was inactive.

Consider `C=C[C@H]1CN2CC[C@H]1C[C@@H]2[C@@H](O)c1ccnc2ccc(OC)cc12` [QUINIDINE], for which the “inhibition zone (IZ)” value in assay [1] and in assay [2] was 0.8 cm in each case. Besides, the outcome in assay [3] and in assay [4] was Active.

Take `OCCN1CCN(CCCN2c3ccccc3Sc3ccc(C(F)(F)F)cc32)CC1` [FLUPHENAZINE]: the entries for the “inhibition zone (IZ)” value in assay [1] and in assay [2] were 0.3 cm and 0.2 cm, respectively. In addition, the outcome in assay [3] was inactive. The outcome in assay [4] was Active.

Turning to `CON(C)C(=O)Nc1ccc(Br)c(Cl)c1` [CHLORBROMURON], the “inhibition zone (IZ)” value in assay [1] was 0.9 cm; in assay [2], 0.1 cm. The result in assay [3] was inactive. The outcome in assay [4] was Active.

Consider `CC(=O)Nc1c2sscc-2n(C)c1=O` [THIOLUTIN], for which the “inhibition zone (IZ)” value in assay [1] was determined as 0 cm; in assay [2] it was 0.7 cm. For the same compound, in assay [3], the outcome was Active. Moreover, in assay [4], the result was inactive.

In the case of `CC/N=c1\cc2oc3cc(NCC)c(C)cc3c(-c3ccccc3C(=O)OCC)c-2cc1C.Cl` [RHODAMINE 6G HYDROCHLORIDE], the “inhibition zone (IZ)” value in assay [1] was determined as 0.8 cm; in assay [2] it was 0.2 cm. The result in assay [3] was inactive. In addition, the result in assay [4] was Active.

As for `COC(=O)C1=C(C)NC(C)=C(C(=O)OC)C1c1ccccc1[N+](=O)[O-]` [NIFEDIPINE], the “inhibition zone (IZ)” value in assay [1] and in assay [2] was 0 cm each time. Also, the outcome in assay [3] and in assay [4] was inactive.

Regarding `CN(Cc1cnc2nc(N)nc(N)c2n1)c1ccc(C(=O)N[C@@H](CCC(=O)O)C(=O)O)cc1` [METHOTREXATE], the results for the “inhibition zone (IZ)” value in assay [1] and in assay [2] were 0.1 cm and 0.8 cm, respectively. Also, the result in assay [3] was Active. Besides, the result in assay [4] was inactive.

As to `O=c1c(O)c(-c2ccc(O)c(O)c2)oc2cc(O)cc(O)c12` [QUERCETIN], the “inhibition zone (IZ)” value in assay [1] and in assay [2] was 0 cm in each case. For the same compound, the result in assay [3] and in assay [4] was inactive.

As to `COC(=O)c1ccccc1-c1c2ccc(=N)cc-2oc2cc(N)ccc12.Cl` [RHODAMINE123], the “inhibition zone (IZ)” value stood at 1 cm in assay [1] and 0.1 cm in assay [2]. Further, in assay [3], the result was inactive. For the same compound, the outcome in assay [4] was Active.

`COCCOC(=O)C1=C(C)NC(C)=C(C(=O)OC(C)C)C1c1cccc([N+](=O)[O-])c1` (stereo unspecified) [NIMODIPINE]: the “inhibition zone (IZ)” value in assay [1] and in assay [2] was 0 cm throughout. The outcome in assay [3] and in assay [4] was inactive.

As for `c1ccc(CNc2ncnc3[nH]cnc23)cc1` [6-BENZYLAMINOPURINE], the “inhibition zone (IZ)” value in assay [1] and in assay [2] was 0 cm in each case. Moreover, the outcome in assay [3] and in assay [4] was inactive.

Turning to `CCC[C@@H]1C[C@@H](C(=O)N[C@@H]([C@H]2O[C@H](SC)[C@H](O)[C@@H](O)[C@H]2O)[C@@H](C)O)N(C)C1` [LINCOMYCIN], the “inhibition zone (IZ)” value in assay [1] and in assay [2] was 0 cm throughout. Moreover, the outcome in assay [3] and in assay [4] was inactive.

Source of the values: ChEMBL document CHEMBL1275276, “Analysis of physico-chemical properties of substrates of ABC and MFS multidrug transporters of pathogenic Candida albicans” (2010).
